Experimental data reported in patent US11149037B2, “Pyrazole MAGL inhibitors” (H. Lundbeck A/S, priority 2017, dated 2021).

Columns and labels:
Format in all cases: biochemical
FAAH [1] = target: FAAH (Mus musculus (Mouse), UniProt O08914); test: In vitro competitive activity-based protein profiling, mouse proteomes (brain membrane fraction or cell lysates); conditions: mouse proteome, read-out: FAAH % inh. 1 μM (mouse)
Protocol: (§1) In Vitro Competitive Activity-Based Protein Profiling.
(§2) Proteomes (mouse brain membrane fraction or cell lysates for mouse assays; human prefrontal cortex or PC3 cell membrane fractions for human assays) (50 μL, 1.0 or 2.0 mg/mL total protein concentration) were preincubated with varying concentrations of inhibitors at 37° C. After 30 min, FP-Rh or JW912 or HT-01 (1.0 μL, 50 μM in DMSO) was added and the mixture was incubated for another 30 min at 37° C. Reactions were quenched with SDS loading buffer (15 μL-4×) and run on SDS-PAGE. Following gel imaging, serine hydrolase activity was determined by measuring fluorescent intensity of gel bands corresponding to MAGL and FAAH using ImageJ 1.43u software.

MAGL [2] = target: MAGL (Mus musculus (Mouse), UniProt O35678); test: as above; conditions: mouse proteome, read-out: MAGL % inh. 1 μM (mouse)
Sequence of MAGL (Mus musculus (Mouse), UniProt O35678) (O35678 whole entry): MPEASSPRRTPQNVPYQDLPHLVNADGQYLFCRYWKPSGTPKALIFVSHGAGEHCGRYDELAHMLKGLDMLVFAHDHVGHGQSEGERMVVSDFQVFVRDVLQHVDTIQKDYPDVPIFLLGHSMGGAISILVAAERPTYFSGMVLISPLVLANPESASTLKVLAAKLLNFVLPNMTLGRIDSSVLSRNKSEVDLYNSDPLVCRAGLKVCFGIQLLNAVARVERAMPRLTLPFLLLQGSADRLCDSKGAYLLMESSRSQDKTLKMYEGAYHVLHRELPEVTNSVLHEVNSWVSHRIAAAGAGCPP
Protocol: as §1, §2

MAGL [3] = target: MAGL (Homo sapiens (Human), UniProt Q99685); test: In vitro competitive activity-based protein profiling, human proteomes (prefrontal cortex or PC3 cell membrane fractions); conditions: human proteome; for inhibition at 1 µM: read-out: MAGL % inh. 1 μM (human); for inhibition at 10 µM: read-out: MAGL % inh. (human) @ 10 μM
Sequence of MAGL (Homo sapiens (Human), UniProt Q99685) (Q99685 whole entry): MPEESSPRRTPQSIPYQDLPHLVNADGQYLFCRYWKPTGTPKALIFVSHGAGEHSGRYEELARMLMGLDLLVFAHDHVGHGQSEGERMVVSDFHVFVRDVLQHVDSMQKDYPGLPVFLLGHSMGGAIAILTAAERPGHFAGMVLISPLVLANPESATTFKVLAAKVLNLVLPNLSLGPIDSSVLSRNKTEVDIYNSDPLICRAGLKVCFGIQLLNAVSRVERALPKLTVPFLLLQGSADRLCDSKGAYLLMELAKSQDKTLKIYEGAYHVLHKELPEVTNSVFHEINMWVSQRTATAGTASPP
Protocol: as §1, §2

FAAH [4] = target: FAAH (Homo sapiens (Human), UniProt O00519); test: as above; conditions: 1 μM, human proteome; read-out: FAAH % inh. 1 μM (human)
Sequence of FAAH (Homo sapiens (Human), UniProt O00519) (O00519 whole entry): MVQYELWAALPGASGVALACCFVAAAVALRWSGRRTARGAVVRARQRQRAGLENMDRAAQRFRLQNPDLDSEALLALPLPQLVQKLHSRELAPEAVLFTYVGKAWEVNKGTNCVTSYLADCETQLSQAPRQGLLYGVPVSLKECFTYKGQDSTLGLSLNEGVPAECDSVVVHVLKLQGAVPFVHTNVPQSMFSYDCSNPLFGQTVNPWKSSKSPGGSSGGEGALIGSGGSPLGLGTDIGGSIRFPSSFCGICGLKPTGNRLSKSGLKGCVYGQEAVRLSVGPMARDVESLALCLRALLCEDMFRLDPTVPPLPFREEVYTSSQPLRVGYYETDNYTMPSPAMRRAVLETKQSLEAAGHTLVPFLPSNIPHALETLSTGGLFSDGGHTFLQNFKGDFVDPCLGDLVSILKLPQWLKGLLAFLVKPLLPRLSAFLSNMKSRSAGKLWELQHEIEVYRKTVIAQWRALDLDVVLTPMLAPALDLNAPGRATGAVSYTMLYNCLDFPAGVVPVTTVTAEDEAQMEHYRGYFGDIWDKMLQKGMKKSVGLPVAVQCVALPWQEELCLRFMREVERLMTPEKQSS
Protocol: as §1, §2

Sequence of FAAH (Mus musculus (Mouse), UniProt O08914) (O08914 whole entry): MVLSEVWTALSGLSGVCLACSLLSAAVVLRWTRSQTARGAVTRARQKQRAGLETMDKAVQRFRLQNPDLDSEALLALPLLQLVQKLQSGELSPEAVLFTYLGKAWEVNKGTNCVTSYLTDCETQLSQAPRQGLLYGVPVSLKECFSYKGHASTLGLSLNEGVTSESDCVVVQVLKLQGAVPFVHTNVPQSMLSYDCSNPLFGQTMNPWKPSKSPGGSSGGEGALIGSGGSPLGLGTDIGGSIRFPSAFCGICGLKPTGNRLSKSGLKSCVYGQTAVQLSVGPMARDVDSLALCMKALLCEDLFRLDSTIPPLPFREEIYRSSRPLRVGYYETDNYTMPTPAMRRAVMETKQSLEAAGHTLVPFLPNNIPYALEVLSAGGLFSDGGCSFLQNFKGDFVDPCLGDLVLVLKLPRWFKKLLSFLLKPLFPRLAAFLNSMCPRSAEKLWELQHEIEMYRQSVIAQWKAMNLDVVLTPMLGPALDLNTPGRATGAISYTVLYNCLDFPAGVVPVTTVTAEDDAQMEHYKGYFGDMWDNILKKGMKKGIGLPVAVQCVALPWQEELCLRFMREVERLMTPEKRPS

CC(=O)Nc1ccn(C(=O)N2CC3CN(Cc4ccc(C(N)=O)c(C(F)(F)F)c4)CC3C2)n1 (centres unmarked) [Example 124, 4-((5-(3-Acetamido-1H-pyrazole-1-carbonyl)hexahydropyrrolo[3,4-c]pyrrol-2(1H)-yl)methyl)-2-(trifluoromethyl)benzamide]
inhibition at 1 µM (FAAH [1]): 0 to 25%
inhibition at 1 µM (MAGL [2]): > 75%
inhibition at 1 µM (MAGL [3]): > 75%
inhibition at 1 µM (FAAH [4]): 0 to 25%

CC1(N(CC(=O)O)Cc2ccc(C(F)(F)F)cc2N2CCCC2)CCN(C(=O)n2ccc(NS(C)(=O)=O)n2)CC1 [Example 29, N-(4-methyl-1-(3-(methylsulfonamido)-1H-pyrazole-1-carbonyl)piperidin-4-yl)-N-(2-(pyrrolidin-1-yl)-4-(trifluoromethyl)benzyl)glycine]
inhibition at 1 µM (FAAH [1]): 0 to 25%
inhibition at 1 µM (MAGL [2]): 0 to 25%
inhibition at 10 µM (MAGL [3]): 50 to 75%
inhibition at 1 µM (FAAH [4]): 0 to 25%

CS(=O)(=O)Nc1ccn(C(=O)N2CC3CN(Cc4cccc(C(F)(F)F)c4)CC3C2)n1 (centres unmarked) [Example 114, N-(1-(5-(3-(Trifluoromethyl)benzyl)octahydropyrrolo[3,4-c]pyrrole-2-carbonyl)-1H-pyrazol-3-yl)methanesulfonamide]
inhibition at 1 µM (FAAH [1]): > 75%
inhibition at 1 µM (MAGL [2]): 25 to 50%
inhibition at 1 µM (MAGL [3]): > 75%
inhibition at 1 µM (FAAH [4]): 25 to 50%

CS(=O)(=O)Nc1ccn(C(=O)N2CCN(Cc3nc4ccccc4s3)CC2)n1 [Example 56, N-(1-(4-(Benzo[d]thiazol-2-ylmethyl)piperazine-1-carbonyl)-1H-pyrazol-3-yl)methanesulfonamide]
inhibition at 1 µM (FAAH [1]): 0 to 25%
inhibition at 1 µM (MAGL [2]): > 75%
inhibition at 1 µM (MAGL [3]): > 75%
inhibition at 1 µM (FAAH [4]): 0 to 25%

CC(=O)Nc1ccn(C(=O)N2CCC3(CCCN3C(=O)c3ccc(Cl)c(C)c3)CC2)n1 [Example 84, N-(1-(1-(4-Chloro-3-methylbenzoyl)-1,8-diazaspiro[4.5]decane-8-carbonyl)-1H-pyrazol-3-yl)acetamide]
inhibition at 1 µM (FAAH [1]): 0 to 25%
inhibition at 1 µM (MAGL [2]): > 75%
inhibition at 1 µM (MAGL [3]): > 75%
inhibition at 1 µM (FAAH [4]): 0 to 25%

CS(=O)(=O)Nc1ccn(C(=O)N2CCC3(CCN(Cc4ccc(C(F)(F)F)cc4N4CCC(F)CC4)CC3)C2)n1 [Example 60, N-(1-(8-(2-(4-Fluoropiperidin-1-yl)-4-(trifluoromethyl)benzyl)-2,8-diazaspiro[4.5]decane-2-carbonyl)-1H-pyrazol-3-yl)methanesulfonamide]
inhibition at 1 µM (FAAH [1]): 0 to 25%
inhibition at 1 µM (MAGL [2]): > 75%
inhibition at 1 µM (MAGL [3]): > 75%
inhibition at 1 µM (FAAH [4]): 0 to 25%

CS(=O)(=O)Nc1ccn(C(=O)N2CCC(Oc3ccc(C(F)(F)F)cc3N3C4CCC3COC4)CC2)n1 [Example 92, N-(1-(4-(2-(3-Oxa-8-azabicyclo[3.2.1]octan-8-yl)-4-(trifluoromethyl)phenoxy)piperidine-1-carbonyl)-1H-pyrazol-3-yl)methanesulfonamide]
inhibition at 1 µM (FAAH [1]): 0 to 25%
inhibition at 1 µM (MAGL [2]): > 75%
inhibition at 1 µM (MAGL [3]): > 75%
inhibition at 1 µM (FAAH [4]): 0 to 25%

CC(=O)Nc1ccn(C(=O)N2CCC(C)(N(C)Cc3ccc(C(N)=O)c(C(F)(F)F)c3)CC2)n1 [Example 130, 4-(((1-(3-Acetamido-1H-pyrazole-1-carbonyl)-4-methylpiperidin-4-yl)(methyl)amino)methyl)-2-(trifluoromethyl)benzamide]
inhibition at 1 µM (FAAH [1]): 0 to 25%
inhibition at 1 µM (MAGL [2]): > 75%
inhibition at 1 µM (MAGL [3]): > 75%
inhibition at 1 µM (FAAH [4]): 0 to 25%

CN(c1ccc(C(F)(F)F)cc1N1CCCC1)C1CCN(C(=O)n2ccc(NS(C)(=O)=O)n2)CC1 [Example 19, N-(1-(4-(methyl(2-(pyrrolidin-1-yl)-4-(trifluoromethyl)phenyl)amino)piperidine-1-carbonyl)-1H-pyrazol-3-yl)methanesulfonamide]
inhibition at 1 µM (FAAH [1]): 0 to 25%
inhibition at 1 µM (MAGL [2]): > 75%
inhibition at 1 µM (MAGL [3]): > 75%
inhibition at 1 µM (FAAH [4]): 0 to 25%

CS(=O)(=O)Nc1ccn(C(=O)N2CCN(Cc3ccc(Cl)c(OC4CCCC4)c3)CC2)n1 [Example 111, N-(1-(4-(4-Chloro-3-(cyclopentyloxy)benzyl)piperazine-1-carbonyl)-1H-pyrazol-3-yl)methanesulfonamide]
inhibition at 1 µM (FAAH [1]): 0 to 25%
inhibition at 1 µM (MAGL [2]): > 75%
inhibition at 1 µM (MAGL [3]): > 75%
inhibition at 1 µM (FAAH [4]): 0 to 25%

CC(=O)Nc1ccn(C(=O)N2CCC3(CCCN3C(=O)c3ccc(C#N)c(C)c3)CC2)n1 [Example 85, N-(1-(1-(4-Cyano-3-methylbenzoyl)-1,8-diazaspiro[4.5]decane-8-carbonyl)-1H-pyrazol-3-yl)acetamide]
inhibition at 1 µM (FAAH [1]): 0 to 25%
inhibition at 1 µM (MAGL [2]): > 75%
inhibition at 1 µM (MAGL [3]): > 75%
inhibition at 1 µM (FAAH [4]): 0 to 25%

Cc1c(CN2CCN(C(=O)n3ccc(NS(C)(=O)=O)n3)CC2)sc2ccccc12 [Example 57, N-(1-(4-((3-Methylbenzo[b]thiophen-2-yl)methyl)piperazine-1-carbonyl)-1H-pyrazol-3-yl)methanesulfonamide]
inhibition at 1 µM (FAAH [1]): 0 to 25%
inhibition at 1 µM (MAGL [2]): > 75%
inhibition at 1 µM (MAGL [3]): > 75%
inhibition at 1 µM (FAAH [4]): 0 to 25%

CS(=O)(=O)Nc1ccn(C(=O)N2CC3CN(Cc4ccc(C(F)(F)F)cc4NCCCC(=O)O)CC3C2)n1 (centres unmarked) [Example 78, 4-((2-((5-(3-(Methylsulfonamido)-1H-pyrazole-1-carbonyl)hexahydropyrrolo[3,4-c]pyrrol-2(1H)-yl)methyl)-5-(trifluoromethyl)phenyl)amino)butanoic acid]
inhibition at 1 µM (FAAH [1]): 0 to 25%
inhibition at 1 µM (MAGL [2]): > 75%
inhibition at 1 µM (MAGL [3]): > 75%
inhibition at 1 µM (FAAH [4]): 0 to 25%

C[C@H]1CN(C(=O)n2ccc(NS(C)(=O)=O)n2)CCN1Cc1cnc(Cl)c(N2CCC(F)CC2)c1 [Example 31, (S)—N-(1-(4-((6-chloro-5-(4-fluoropiperidin-1-yl)pyridin-3-yl)methyl)-3-methylpiperazine-1-carbonyl)-1H-pyrazol-3-yl)methanesulfonamide]
inhibition at 1 µM (FAAH [1]): 0 to 25%
inhibition at 1 µM (MAGL [2]): > 75%
inhibition at 1 µM (MAGL [3]): > 75%
inhibition at 1 µM (FAAH [4]): 0 to 25%

C[C@@H]1C[C@H](N(C)Cc2ccc(Cl)c(N3CC4COCC4C3)c2)CCN1C(=O)n1ccc(NS(C)(=O)=O)n1 (stereo partly drawn) [Example 27, N-(1-((2R,4R)-4-((4-chloro-3-(tetrahydro-1H-furo[3,4-c]pyrrol-5(3H)-yl)benzyl)(methyl)amino)-2-methylpiperidine-1-carbonyl)-1H-pyrazol-3-yl)methanesulfonamide]
inhibition at 1 µM (FAAH [1]): 0 to 25%
inhibition at 1 µM (MAGL [2]): 0 to 25%
inhibition at 10 µM (MAGL [3]): 0 to 25%

C[C@H]1CN(C(=O)n2ccc(NS(C)(=O)=O)n2)CCN1Cc1cnc(C(F)(F)F)c(N2CCC(F)CC2)c1 [Example 33, (S)—N-(1-(4-((5-(4-fluoropiperidin-1-yl)-6-(trifluoromethyl)pyridin-3-yl)methyl)-3-methylpiperazine-1-carbonyl)-1H-pyrazol-3-yl)methanesulfonamide]
inhibition at 1 µM (FAAH [1]): 0 to 25%
inhibition at 1 µM (MAGL [2]): > 75%
inhibition at 1 µM (MAGL [3]): > 75%

CS(=O)(=O)Nc1ccn(C(=O)N2CCC(OCc3ccc(N4CCC(F)CC4)c(Cl)c3)CC2)n1 [Example 30, N-(1-(4-((3-chloro-4-(4-fluoropiperidin-1-yl)benzyl)oxy)piperidine-1-carbonyl)-1H-pyrazol-3-yl)methanesulfonamide]
inhibition at 1 µM (FAAH [1]): > 75%
inhibition at 1 µM (MAGL [2]): > 75%
inhibition at 1 µM (MAGL [3]): > 75%
